Like-named read-outs stand apart in the source and are kept apart here.

What is called Ki is a measure of affinity in units of concentration, obtained from inhibition or displacement. The term hepatocyte CLint denotes a measure of how fast metabolising enzymes remove a compound, apart from limits set by blood flow. The low end stands for greater metabolic stability, the high end for faster metabolism. For orientation: inhibition means the drop in the measured response relative to a control, in per cent.

The subject of data set [1] is IKKα over IKKβ. As to conditions: previous work [6]; cited from earlier work.
Data set [2] has as its target T1, IKKα (Homo sapiens, UniProt O15111).
T1 sequence (O15111 1-745): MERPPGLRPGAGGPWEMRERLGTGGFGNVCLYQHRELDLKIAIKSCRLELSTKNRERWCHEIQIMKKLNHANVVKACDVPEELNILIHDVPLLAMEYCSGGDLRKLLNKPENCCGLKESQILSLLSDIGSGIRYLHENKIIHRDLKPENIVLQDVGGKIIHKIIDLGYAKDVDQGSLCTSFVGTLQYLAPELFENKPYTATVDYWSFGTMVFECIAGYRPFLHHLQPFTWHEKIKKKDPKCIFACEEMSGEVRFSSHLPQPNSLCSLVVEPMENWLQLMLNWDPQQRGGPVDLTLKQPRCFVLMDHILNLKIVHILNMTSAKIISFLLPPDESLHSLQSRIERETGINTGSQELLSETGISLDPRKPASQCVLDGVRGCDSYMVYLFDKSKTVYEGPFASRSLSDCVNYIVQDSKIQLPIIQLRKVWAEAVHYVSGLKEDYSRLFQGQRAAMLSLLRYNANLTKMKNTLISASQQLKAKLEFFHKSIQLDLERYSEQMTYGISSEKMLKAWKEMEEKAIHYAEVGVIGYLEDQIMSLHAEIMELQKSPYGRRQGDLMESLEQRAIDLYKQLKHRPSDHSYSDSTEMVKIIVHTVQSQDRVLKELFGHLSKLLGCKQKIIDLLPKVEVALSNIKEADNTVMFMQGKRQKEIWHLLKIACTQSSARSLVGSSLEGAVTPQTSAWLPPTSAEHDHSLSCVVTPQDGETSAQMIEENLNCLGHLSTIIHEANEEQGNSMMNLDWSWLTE
As to conditions: previous work [6]; read-out: IKKα inhibitory activity (Ki) of previous hit; cited from earlier work.

Another data set concerns U2OS cells. As to conditions: cited from earlier work.
Data set [3] concerns the target T1, IKKα. The experiment in a line: in-house DELFIA kinase assay, IKKα. Type of data set: biochemical. The text has this:
(§1) To examine the pyrrolo[2,3 -b]pyridines as an alternative scaffold, we adopted the AIPP core because it had similar dimensions to 1 SU909, with HBD/HBA motifs positioned at the scaffold extremities to interact with both the hinge region and the G-loop wall of IKKα, a rationale we had previously proposed as the basis for imparting selectivity. A preliminary set of AIPP derivatives was designed to explore its utility as an IKK-targeting scaffold, whilst incorporating additional functionality through which to introduce selectivity for the IKKα isoform (2-4 SU1087, SU1266 and SU1253; FIG. 3). This was achieved by initially adopting two different approaches: either appending a hydrophobic moiety to the pyrrolo[2,3 -b]pyridine motif as a fused form to afford the tricyclic derivatives 2 and 3 SU1266 and SU1087, or as a phenyl substituent to introduce flexibility with the central pyrrolo[2,3 -b]pyridine moiety in 4 SU1253 . […] The pyrrolo[2,3 -b]pyridine was bound to the hinge region in the classical HBA/HBD motif with the GK+3 NH and C═O backbone, whilst the aminoindazole projected towards the top of the pocket to interact with the G-loop (FIG. 4A). […] In both isoforms, the 2 -phenyl moiety was oriented out from the hinge towards the exposed solvent area.

A short description of the next data set: Turbidimetric solubility. Format: physicochemical.
Data set [4] is described as follows: mouse hepatocyte clearance (cryopreserved pooled mouse CD1 hepatocytes). Format: in vitro ADME. As to conditions: mouse, hepatocytes; 1 μM; 0.5×10^6 cells/mL; 37° C. As for the experimental part:
Pharmacokinetic studies were contracted to Sygnature Discovery Limited. Intrinsic clearance and half life were determined using cryopreserved pooled mouse CD1 hepatocytes. Test compounds were analysed at 1 μM in Williams Media E buffer (0.01 % DMSO) at a cell density of 0.5×10^6 cells mL^−1 . Cells were incubated at 37° C. for one hour with shaking and compound depletion was measured by LC-MS/MS at six timepoints (0.25, 5, 10, 20, 40, and 60 minutes).

A further data set addresses T2, IKKβ (Homo sapiens, UniProt O14920).
T2 sequence (O14920 1-756): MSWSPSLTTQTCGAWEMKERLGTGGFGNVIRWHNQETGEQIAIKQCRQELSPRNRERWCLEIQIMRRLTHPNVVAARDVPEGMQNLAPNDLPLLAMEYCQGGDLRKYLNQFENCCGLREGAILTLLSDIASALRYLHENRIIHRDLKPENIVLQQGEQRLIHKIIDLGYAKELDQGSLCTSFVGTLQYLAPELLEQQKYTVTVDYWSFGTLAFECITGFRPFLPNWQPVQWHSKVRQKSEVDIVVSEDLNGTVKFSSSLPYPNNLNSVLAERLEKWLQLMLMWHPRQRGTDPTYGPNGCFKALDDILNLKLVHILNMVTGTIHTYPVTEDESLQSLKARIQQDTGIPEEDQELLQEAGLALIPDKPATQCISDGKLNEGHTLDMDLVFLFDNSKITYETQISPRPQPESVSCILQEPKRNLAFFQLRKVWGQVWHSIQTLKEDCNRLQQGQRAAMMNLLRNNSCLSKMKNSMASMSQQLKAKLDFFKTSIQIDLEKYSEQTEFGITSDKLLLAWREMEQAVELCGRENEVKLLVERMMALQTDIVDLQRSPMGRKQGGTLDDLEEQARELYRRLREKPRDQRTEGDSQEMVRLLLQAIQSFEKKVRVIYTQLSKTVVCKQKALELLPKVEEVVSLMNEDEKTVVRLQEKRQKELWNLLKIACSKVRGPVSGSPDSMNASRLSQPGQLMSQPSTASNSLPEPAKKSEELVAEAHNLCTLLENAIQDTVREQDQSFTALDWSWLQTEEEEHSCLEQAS
The experiment in a line: in-house DELFIA kinase assay, IKKβ. Type of data set: biochemical. An excerpt:
To examine the pyrrolo[2,3 -b]pyridines as an alternative scaffold, we adopted the AIPP core because it had similar dimensions to 1 SU909, with HBD/HBA motifs positioned at the scaffold extremities to interact with both the hinge region and the G-loop wall of IKKα, a rationale we had previously proposed as the basis for imparting selectivity. A preliminary set of AIPP derivatives was designed to explore its utility as an IKK-targeting scaffold, whilst incorporating additional functionality through which to introduce selectivity for the IKKα isoform (2-4 SU1087, SU1266 and SU1253; FIG. 3). This was achieved by initially adopting two different approaches: either appending a hydrophobic moiety to the pyrrolo[2,3 -b]pyridine motif as a fused form to afford the tricyclic derivatives 2 and 3 SU1266 and SU1087, or as a phenyl substituent to introduce flexibility with the central pyrrolo[2,3 -b]pyridine moiety in 4 SU1253 .

The test system of data set [5] is IKKα over IKKβ. Put plainly: selectivity for IKKα over IKKβ from the kinase assay. Type of data set: biochemical.
Source text: as §1
To shift the selectivity profile towards IKKα, we selected 4 SU1253 for structural optimization based on the notion that sigma-bond rotation between the phenyl ring and the pyrrolo[2,3 -b]pyridine would inbuild the flexibility required to engage with the three dimensional array of residues nearby to exploit differences between the two isoforms. Furthermore, this would enable the inclusion of moieties that could also project into solvent and address solubility considerations. Small groups (NH2, OH, OMe, OEt and F) were initially introduced into the phenyl ring to evaluate their impact on the selectivity profile against both IKKs (5 a-g SU1354 -SU1373, Table 2 ). Our goal was to achieve a 1:50 selectivity ratio of IKKα to IKKβ, with a minimum IKKβ inhibitory Ki of 500 nM.

A further data set addresses CDK9 (Homo sapiens, UniProt P50750). The experiment in a line: kinome profiling at 1 μM, CDK9. Type of data set: biochemical. As to conditions: read-out: % inhibition of CDK9. An excerpt: (§2) We profiled three compounds from the series across the kinome (FIG. 11). […] To identify the structural drivers for CDK inhibition, we obtained X-ray crystal structures of 5 y and 6 g SU1336 and SU1349 with CDK-2 (FIG. 12A) to potentially identify possible routes towards introducing selectivity for IKKα over the CDK enzymes as well as IKKβ. […] All three derivatives form complexes with CDK2 with the pyrrolo[2,3 -b]pyridine H-bonding to GK+3 (Leu 83 ) and the aminoindazole projected towards the G-loop (FIG. 12A), forming H-bonds with Glu 51 and Lys 33 at the back of the pocket. The adoption of the 4 SU1253 -type orientation, rather than the flipped pose observed in IKKα, is probably facilitated by Tr-stacking between the aminoindazole and the GK residue, which in the CDKs is Phe, rather than Met. […] For 6 g SU1349, the hydrophobic pendant benzyloxy group points out into solvent, but can form face-to-edge Tr-Tr interactions with Phe 82 and His 84 from the hinge. Exchanging the hydrophobic pendant benzyloxy group for the morpholinoethyl-containing substituent in 5 y SU1336 removes any direct interaction with these hinge residues, preferring to sit in a more solvent-exposed position, as befits a basic side chain that will be protonated at physiological pH (FIG. 12B).
(§3) Black, 4 SU1253; grey, 5 r SU1261; diagonal stripes, 6 g SU1349. […] All tested compounds (4 SU1253, 5 r SU1261 and 6 g SU1349 ) inhibited CDK5 and CDK9 with >80 %.

In another data set the test system is panel of kinases. Put plainly: kinome profiling at 1 μM. Format: biochemical.
Source text: as §2, §3

The target in a further data set is CDK5 (Homo sapiens, UniProt Q00535). Put plainly: kinome profiling at 1 μM, CDK5. As to conditions: read-out: % inhibition of CDK5. Type of data set: biochemical.
Source text: as §2, §3

Chain of CDK5 (Q00535 whole entry, species assumed): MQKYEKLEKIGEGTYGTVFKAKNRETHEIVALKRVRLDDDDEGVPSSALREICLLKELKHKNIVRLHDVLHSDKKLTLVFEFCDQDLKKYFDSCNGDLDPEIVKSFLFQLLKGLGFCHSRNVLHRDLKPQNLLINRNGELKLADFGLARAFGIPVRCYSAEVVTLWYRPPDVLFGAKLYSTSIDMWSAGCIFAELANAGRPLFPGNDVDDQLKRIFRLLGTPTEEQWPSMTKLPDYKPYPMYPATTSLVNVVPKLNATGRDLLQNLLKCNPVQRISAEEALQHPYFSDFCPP
Chain of CDK5 (Q15078 99-307 partner limits assumed, species assumed): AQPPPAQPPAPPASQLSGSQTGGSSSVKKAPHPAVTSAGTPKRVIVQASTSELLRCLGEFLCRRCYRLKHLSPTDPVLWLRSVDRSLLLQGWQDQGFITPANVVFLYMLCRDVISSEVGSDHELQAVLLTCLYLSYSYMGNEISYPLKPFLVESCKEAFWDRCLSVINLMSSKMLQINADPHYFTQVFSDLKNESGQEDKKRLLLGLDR
Chain of CDK9 (P50750 whole entry, species assumed): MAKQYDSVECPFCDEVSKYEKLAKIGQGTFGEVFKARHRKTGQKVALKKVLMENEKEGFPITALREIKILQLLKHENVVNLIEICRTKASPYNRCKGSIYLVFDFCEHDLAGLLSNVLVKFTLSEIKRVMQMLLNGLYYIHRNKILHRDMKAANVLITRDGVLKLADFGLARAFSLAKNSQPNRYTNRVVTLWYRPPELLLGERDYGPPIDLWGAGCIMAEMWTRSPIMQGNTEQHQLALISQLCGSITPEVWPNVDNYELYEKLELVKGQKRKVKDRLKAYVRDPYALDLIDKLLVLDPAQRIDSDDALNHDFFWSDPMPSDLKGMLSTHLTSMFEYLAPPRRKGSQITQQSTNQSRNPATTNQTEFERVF
Chain of CDK9 (O60563 whole entry partner, species assumed): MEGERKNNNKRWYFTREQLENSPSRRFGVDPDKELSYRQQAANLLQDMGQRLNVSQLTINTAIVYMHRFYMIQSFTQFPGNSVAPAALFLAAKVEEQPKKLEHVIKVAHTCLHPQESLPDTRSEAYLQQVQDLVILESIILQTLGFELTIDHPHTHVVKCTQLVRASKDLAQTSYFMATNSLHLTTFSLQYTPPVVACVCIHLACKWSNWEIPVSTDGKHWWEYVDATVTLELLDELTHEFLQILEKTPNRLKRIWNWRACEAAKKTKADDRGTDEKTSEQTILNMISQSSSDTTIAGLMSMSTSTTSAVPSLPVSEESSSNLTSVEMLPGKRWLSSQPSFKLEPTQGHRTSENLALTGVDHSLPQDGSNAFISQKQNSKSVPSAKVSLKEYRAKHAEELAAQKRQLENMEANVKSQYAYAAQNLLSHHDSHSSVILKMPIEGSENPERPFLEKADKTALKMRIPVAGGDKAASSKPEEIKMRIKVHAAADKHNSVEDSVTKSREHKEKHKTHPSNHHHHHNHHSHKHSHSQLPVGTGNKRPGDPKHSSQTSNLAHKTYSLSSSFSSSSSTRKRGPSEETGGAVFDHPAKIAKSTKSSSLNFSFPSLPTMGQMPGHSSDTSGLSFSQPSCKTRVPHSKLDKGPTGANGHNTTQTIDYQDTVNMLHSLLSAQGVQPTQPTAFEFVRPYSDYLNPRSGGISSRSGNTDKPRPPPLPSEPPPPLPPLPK

As for `N#Cc1c[nH]c2nc(N)nc(-c3ccc(S(N)(=O)=O)cc3)c12` [1 SU909], the “selective inhibition of IKKα, in words” value with IKKα over IKKβ [1] is “selective inhibitor of IKKα”. Also, the Ki on IKKα [2] was 80 nM. Besides, the “selectivity in U2OS cells, in words” value in the data set on U2OS cells is “recapitulated this discrimination in U2OS cells”.
In the case of `Nc1n[nH]c2ccc(-c3ccnc4[nH]c(-c5ccnc(OCc6ccncc6)c5)cc34)cc12` [6k SU1628, 5-(2-(2-(Pyridin-4-ylmethoxy)pyridin-4-yl)-1 H-pyrrolo[2,3-b]pyridin-4-yl)-1 H-indazol-3-amine], the Ki on IKKα [3] amounted to 6 nM; at IKKβ it was 12 nM. For the same compound, in the data set “Turbidimetric solubility”, the “solubility, in words” value is “requisite solubility”. Further, the hepatocyte CLint in data set [4] came out at 11 µL/min/1e6 cells. The “IKKβ inhibition, in words” value at IKKβ is recorded as “potent inhibition against IKKβ”. In addition, the “selectivity for IKKα over IKKβ, in words” value in the data set on IKKα over IKKβ [5] was “equipotent against both isoforms”.
`Nc1n[nH]c2ccc(-c3ccnc4[nH]c(-c5ccccc5)cc34)cc12` [4 SU1253, 5-(2 -Phenyl-1 H-pyrrolo[2,3-b]pyridin-4-yl)-1 H-indazol-3-amine]: the values for the Ki on IKKα [3] and at IKKβ were 3 nM and 15 nM, respectively. Further, the inhibition at 1 µM at CDK9 and on CDK5 was over 80% each time. In the data set on panel of kinases, the “kinome selectivity, in words” value is “very promiscuous”. For the same compound, the figures for the “number of kinases inhibited by >80 %” value in the data set on panel of kinases (panel of 231 kinases) and in the data set on panel of kinases (panel of 253 kinases (FIG. 11)) were 44 kinases and 46 kinases, respectively.
For `Cc1ccc(S(=O)(=O)Nc2ccc(-c3cc4c(-c5ccc6[nH]nc(N)c6c5)ccnc4[nH]3)cc2)cc1` [5u SU1283, N-(4-(4-(3 -Amino-1 H-indazol-5-yl)-1 H-pyrrolo[2,3-b]pyridin-2-yl)phenyl)-4-methylbenzenesulfonamide], the Ki on IKKα [3] stood at 4 nM; at IKKβ, 67 nM. For the same compound, the “selectivity for IKKα over IKKβ, in words” value with IKKα over IKKβ [5] is listed as “tended to improve IKKβactivity to reduce selectivity”.
